# Source: PubChem BioAssay (NCI)
#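 Grown in 96-well plates, cells were treated for 48 hours with each compound at five concentrations. Insufficient inhibition: endpoint recorded as highest concentration tested. GI50: concentration for 50% inhibition of growth. TGI marks complete inhibition of growth.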
# Key:
# Assay in all cases: NCI tumour cell line growth inhibition, 48 h
# A498 renal = test system: A498 renal
# CAKI-1 renal = test system: CAKI-1 renal
# HCT-15 colon = test system: HCT-15 colon
# HL-60(TB) leukemia = test system: HL-60(TB) leukemia
# HOP-62 NSCLC = test system: HOP-62 NSCLC
# SF-295 CNS = test system: SF-295 CNS
# SW-620 colon = test system: SW-620 colon
# TK-10 renal = test system: TK-10 renal
# SK-MEL-28 melanoma = test system: SK-MEL-28 melanoma
# NCI-H226 lung = test system: NCI-H226 lung
structure (smiles),measurement,setting,value
Cc1cc2c(c(N)c1C)C(=O)c1ccccc1C2=O,TGI,A498 renal,79 µM
same,TGI,CAKI-1 renal,55.3 µM
same,TGI,HCT-15 colon,> 100 µM
same,TGI,HL-60(TB) leukemia,> 100 µM
same,TGI,HOP-62 NSCLC,40 µM
same,TGI,SF-295 CNS,86.6 µM
same,TGI,SW-620 colon,> 100 µM
same,TGI,TK-10 renal,93.1 µM
O=C1C(Cl)=C(Nc2cccc(O)c2)C(=O)N1c1cccc(Cl)c1Cl,GI50,CAKI-1 renal,3.14 µM
same,TGI,CAKI-1 renal,20.2 µM
same,GI50,HCT-15 colon,20.7 µM
same,TGI,HCT-15 colon,56.7 µM
same,GI50,HOP-62 NSCLC,15.9 µM
same,TGI,HOP-62 NSCLC,62.9 µM
same,GI50,SF-295 CNS,3.28 µM
same,TGI,SF-295 CNS,25.2 µM
same,GI50,SK-MEL-28 melanoma,24.4 µM
same,TGI,SK-MEL-28 melanoma,> 100 µM
same,GI50,SW-620 colon,15.2 µM
same,TGI,SW-620 colon,34.5 µM
same,GI50,TK-10 renal,20.2 µM
same,TGI,TK-10 renal,80 µM
CC[C@]12CCCN3CC[C@]4(C(=C(C(=O)OC)C1)Nc1ccccc14)[C@@H]32,GI50,A498 renal,16.1 µM
same,TGI,A498 renal,32.4 µM
same,GI50,CAKI-1 renal,11.8 µM
same,TGI,CAKI-1 renal,32.8 µM
same,GI50,HCT-15 colon,13.7 µM
same,TGI,HCT-15 colon,28.5 µM
same,GI50,HL-60(TB) leukemia,21.9 µM
same,TGI,HL-60(TB) leukemia,52 µM
same,GI50,HOP-62 NSCLC,15.6 µM
same,TGI,HOP-62 NSCLC,32.7 µM
same,GI50,SF-295 CNS,17.9 µM
same,TGI,SF-295 CNS,36.1 µM
same,GI50,SK-MEL-28 melanoma,21.3 µM
same,TGI,SK-MEL-28 melanoma,64.7 µM
same,GI50,SW-620 colon,16.2 µM
same,TGI,SW-620 colon,33.3 µM
same,GI50,TK-10 renal,19.9 µM
same,TGI,TK-10 renal,56.7 µM
Cc1nn(-c2ccc(Br)cc2)c(C)c1CC(=O)c1cc(O)ccc1O,GI50,A498 renal,7.18 µM
same,TGI,A498 renal,47.3 µM
same,GI50,CAKI-1 renal,12.2 µM
same,TGI,CAKI-1 renal,27.3 µM
same,GI50,HCT-15 colon,4.61 µM
same,TGI,HCT-15 colon,15.8 µM
same,GI50,HL-60(TB) leukemia,11.9 µM
same,TGI,HL-60(TB) leukemia,> 50 µM
same,GI50,NCI-H226 lung,7.69 µM
same,TGI,NCI-H226 lung,19.3 µM
same,GI50,SF-295 CNS,14.9 µM
same,TGI,SF-295 CNS,30.3 µM
same,GI50,SK-MEL-28 melanoma,12.6 µM
same,TGI,SK-MEL-28 melanoma,47.5 µM
same,GI50,SW-620 colon,14.4 µM
same,TGI,SW-620 colon,> 50 µM
same,GI50,TK-10 renal,15.5 µM
same,TGI,TK-10 renal,> 50 µM
O=S(=O)(NCCCNc1cc(-c2cn(-c3ccccc3)nc2-c2cccc(O)c2)ccn1)c1ccc(Cl)cc1,GI50,A498 renal,0.329 µM
same,TGI,A498 renal,2.24 µM
same,GI50,CAKI-1 renal,2.3 µM
same,TGI,CAKI-1 renal,12 µM
same,GI50,HCT-15 colon,1.34 µM
same,TGI,HCT-15 colon,3.45 µM
same,GI50,HL-60(TB) leukemia,2.09 µM
same,TGI,HL-60(TB) leukemia,5.61 µM
same,GI50,HOP-62 NSCLC,1.52 µM
same,TGI,HOP-62 NSCLC,3.25 µM
same,GI50,NCI-H226 lung,1.77 µM
same,TGI,NCI-H226 lung,5.13 µM
same,GI50,SF-295 CNS,1.42 µM
same,TGI,SF-295 CNS,3.29 µM
same,GI50,SW-620 colon,1.62 µM
same,TGI,SW-620 colon,3.54 µM
same,GI50,TK-10 renal,3.16 µM
same,TGI,TK-10 renal,8.97 µM
O=C(CCl)Nc1ccc2c(c1)C(=O)c1ccc(NC(=O)CCl)cc1C2=O,GI50,A498 renal,3.49 µM
same,TGI,A498 renal,27.6 µM
same,GI50,CAKI-1 renal,0.683 µM
same,TGI,CAKI-1 renal,1.98 µM
same,GI50,HCT-15 colon,0.183 µM
same,TGI,HCT-15 colon,0.469 µM
same,GI50,HL-60(TB) leukemia,0.454 µM
same,TGI,HL-60(TB) leukemia,3.08 µM
same,GI50,NCI-H226 lung,0.229 µM
same,TGI,NCI-H226 lung,0.711 µM
same,GI50,SF-295 CNS,1.44 µM
same,TGI,SF-295 CNS,3.29 µM
same,GI50,SK-MEL-28 melanoma,0.321 µM
same,TGI,SK-MEL-28 melanoma,1.33 µM
same,GI50,SW-620 colon,0.198 µM
same,TGI,SW-620 colon,0.493 µM
same,GI50,TK-10 renal,1.81 µM
same,TGI,TK-10 renal,7.33 µM
c1ccc(C2N3CCCCC3[C@@H]3c4[nH]c5ccccc5c4CCN23)cc1 (stereo partly drawn),TGI,A498 renal,63.6 µM
same,TGI,CAKI-1 renal,> 100 µM
same,TGI,HCT-15 colon,> 100 µM
same,TGI,HL-60(TB) leukemia,48.8 µM
same,TGI,HOP-62 NSCLC,> 100 µM
same,TGI,SF-295 CNS,> 100 µM
same,TGI,SK-MEL-28 melanoma,70.2 µM
same,TGI,SW-620 colon,> 100 µM
same,TGI,TK-10 renal,> 100 µM
